Measured values published in US8318504B2, “MRP2 efflux pathway prognostic method” (priority 2009, dated 2012).

How the values were obtained:
NTCP = target: T1, NTCP (Homo sapiens, UniProt Q14973); test: Uptake of TC and CLF into CHO cells stably expressing NTCP; assay type: cell-based; details: 1 μmol/L CLF, 1 and 5 minutes, fluorescence analysis and quantitative determination
T1 construct: the coding region ligated into pcDNA5/FRT; expressed in transfected cells
T1 sequence (Q14973 1-349): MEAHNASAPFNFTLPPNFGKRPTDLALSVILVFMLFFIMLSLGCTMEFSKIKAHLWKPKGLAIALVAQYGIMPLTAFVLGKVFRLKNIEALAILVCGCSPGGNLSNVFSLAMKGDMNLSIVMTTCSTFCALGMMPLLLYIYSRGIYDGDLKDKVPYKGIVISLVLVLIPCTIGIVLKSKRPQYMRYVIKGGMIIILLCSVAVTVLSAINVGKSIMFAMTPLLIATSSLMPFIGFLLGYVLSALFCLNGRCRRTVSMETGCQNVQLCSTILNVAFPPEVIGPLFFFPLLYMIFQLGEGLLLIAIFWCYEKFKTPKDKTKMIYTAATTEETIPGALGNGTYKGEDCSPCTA
Protocol: cDNA for human NTCP [Hagenbuch et al., J Clin Invest 1994 March; 93(3): 1326-1331] was cut with EcoRV and HindI and the coding region ligated into pcDNA5/FRT (Invitrogen, Life-Technologies, Carlsbad, Calif.). CHO FlpIn cells (Invitrogen, Life-Technologies) were transfected with the resulting construct using Lipofectamine® 2000 (Invitrogen, Life-Technologies). Stably transfected cells were selected with 550 μg Hygromycin-B in HAM-F12 medium (Gibco, Invitrogen, Life-Technologies). Transfected cells were cloned with the limiting dilution method. […] To further characterize the cloned cells, immunofluorescence localization of NTCP using a polyclonal antibody against NTCP [Kullak-Ublick G et al., Gastroenterology 1997 October; 113(4):1295-1305] was performed as described by Huber R D et al. [Am J Physiol Cell Physiol 2007 February; 292(2):[…]-[…]]. CHO cells expressing OATP1B1, OATP1B3 and OATP2B1 were described previously [Treiber et al., DMD 35:1400-1407, 2007]. For all transport experiments, cells grown on 3 cm culture dishes were cultured for 24 hours in media supplemented with 5 mmol/L sodium-butyrate to increase expression levels of transfected transporters [Palermo D P et al., J Biotechnol 1991 June; 19(1):35-47]. • Transport experiments with uptake of radioactively labeled substrates: These experiments were performed as described by Huber R D et al. […] Uptake was performed in the same buffers as for the radioactive substrates above. For visualization of CLF uptake, cells were immediately inspected with a Leica-DM-IRBE-inverted-microcope (Leica-Microsystems, Wetzlar, Germany) equipped with a Hamamatsu-ORKA-ER-camera (Hamamatsu-Photonoics, Japan). To determine uptake of CLF, cells were solubilized by the addition of 2 ml 1% (w/v) Triton-X-100. After complete solubilization, 1.5 ml was used to measure fluorescence in a Perkin-Elmer LS-5 luminescence-spectrometer set at λexe 486 nm (slit 10 nm) and λem 520 nm (slit 5 nm). Protein was determined with the bicinchoninic acid method using a kit from Interchim (Montfuçon, France). […]

Abcc2 and Abcc3 = test: Plasma clearance of CLF in wild type, Abcc2-/- and Abcc3-/- mice; assay type: in vivo; details: single injection of 100 μL 2 mmol/L CLF in the tail vein
Protocol: Wild type, Abcc3^−/− and Abcc2^−/− mice received 100 μL of 2 mmol/L CLF by injection in the tail vein. After the indicated time points blood was drawn. Data are expressed as the mean percentage of the initial CLF level at 2 minutes. Significance was tested using two-sided Student's t-test: *P<0.05 for Abcc2−/− vs wild type mice.
Abcc2^−/− mice (against a Friend virus B-type (FVB) background) were bred at the National Cancer Institute (Amsterdam, The Netherlands). Production and characterization of the Abcc2^−/− mice was as described by Vlaming et al. [J Pharmacol Exp Ther 2006 July; 318(1):319-327]. Wild type and Abcc3^−/− mice (against an FVB background) were bred at the animal institute of the Academic Medical Center. Production and characterization of the Abcc3^−/− mice was as described by Zelcer et al. [J Hepatol 2006 April; 44(4):768-775].
Male mice were housed in a pathogen-free animal facility on a 12 hours light-dark cycle. Mice were anesthetized with a combination of Hypnorm (VetaPharma, UK; 11.8 mg/kg fluanisone and 0.37 mg/kg fentanyl-citrate) and diazepam (Centrafarm, Etten-Leur, The Netherlands; 5.9 mg/kg valium). Body temperature was maintained at 36±1° C. on thermostatted heating pads. […] Blood samples were deproteinised by addition of two volumes methanol and the amount CLF in the supernatant was quantitated by measurement of fluorescence as described above.

Compound: CC(CCC(=O)NC(CCCCNC(=S)Nc1ccc(-c2c3ccc(=O)cc-3oc3cc(O)ccc23)c(C(=O)O)c1)C(=O)O)C1CCC2C3C(O)CC4CC(O)CCC4(C)C3CC(O)C12C (stereo not drawn) [CLF, cholyl lysyl fluorescein]
- sodium-dependent uptake of CLF mediated by NTCP (NTCP): no sodium-dependent uptake
- Plasma clearance of CLF in Abcc2-/- mice in comparison with wild type mice (Abcc2 and Abcc3): strongly impaired
- Plasma clearance of CLF in Abcc3-/- mice in comparison with wild type mice (Abcc2 and Abcc3): not affected
